Laboratory results from patent publication US7304093B2, “Ketone compounds and compositions for cholesterol management and related uses” (Esperion Therapeutics, Inc., priority 2000, dated 2007).

Columns and labels:
[1] = tested on: primary rat hepatocytes; assay: Inhibition of lipid synthesis ([1-14C]-acetate incorporation) in primary cultures of rat hepatocytes; type: cell-based; details: Hepatocyte, 4 h incubation with [1-14C]-acetate, Table 7, ranges: confidence of estimate insufficient to assign a value
Procedure, shortened: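 Monolayer primary hepatocytes from male Sprague-Dawley rats, serum-free overnight, were incubated 4 h with 0, 1, 3, 10, 30, 100 or 300 μM compound and 0.25 μCi [1-14C]-acetate per well. Total lipid synthesis was read as radioactivity in the lipid phase extracted into scintillant.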

With CC(C)(CCCCC(=O)CCCCC(C)(C)C(=O)O)C(=O)O [Compound 210c, 7-Oxo-2,2,12,12-tetramethyltridecanedioic acid] the IC50 [1] was 3000 nM and the melting point was 60 to 61.5 °C.

In the case of CC(C)(CCCCCC(=O)CCCCCC(C)(C)C(=O)O)C(=O)O [Compound 210g, 2,2,14,14-Tetramethyl-8-oxopentadecanedioic acid], the IC50 [1] is reported as 3000 nM.

CC(C)(CO)CCCCC(=O)CCCCC(C)(C)CO [Compound 214c, 1,13-Dihydroxy-2,2,12,12-tetramethyltridecan-7-one] showed an IC50 [1] of 4000 nM.
